# In EP0008186A1, “Cyclic diamides, a process for their preparation and their pharmaceutical compositions” (BEECHAM GROUP PLC, priority 1978, dated 1980):
# Assays:
# Format in all cases: in vivo
# conscious guinea pigs = assay: Herxheimer test: protection against histamine aerosol induced bronchoconstriction; conditions: administered by aerosol or by oral administration, mean of several experiments
# Procedure: • 1. The compounds were examined for their ability to inhibit 5-hydroxytryptamine or histamine induced bronchoconstriction in the anaesthetised, artifically respired guinea pig (Konzett-Rossler preparation). The compounds were administered intravenously. The results are shown in Table A. [formula] • 2. Compound 3 was also examined for its ability to protect conscious guinea pigs against bronchoconstriction induced by an histamine aerosol (Herxheimer test). In these experiments the compound was administered by aerosol or by oral administration. The results are the mean of several experiments. Compound 3 was active at 10 mg/kg.
# [1] = test system: anaesthetised, perfused rat stomach preparation; assay: Inhibition of pentagastrin-stimulated gastric acid secretion (Ghosh and Schild preparation); conditions: i.v.
# Procedure: The compounds were examined for their ability to inhibit pentagastrin-stimulated gastric acid secretion in the anaesthetised, perfused rat stomach preparation (Ghosh and Schild preparation). The compounds were administered intravenously.
# rat = assay: Anti-ulcer activity: inhibition of indomethacin induced gastric damage; conditions: gastric damage score 1-9; 50mg/kg orally 30 minutes prior to 15mg/kg indomethacin subcutaneously; sacrificed 4 hours later; vehicle 4.57 ± 0.69; p <0.01 (Mann Witney)
# Procedure: Anti-ulcer activity was assessed by the inhibition of indomethacin induced gastric damage in the rat according to the method of Eleghe (1974) Israeli J. Med. Sci. 10 1451. Rats were starvedovernight given 15mg/kg indomethacin subcutaneously and sacrificed 4 hours later. Stomachs were reflated with n. saline, cut along the greater curvature pinned out and scored for gastric damage by the following system: • Score 1 - 3 - according to degree of erythema and slight haemorrhage. • Score 4 - 6 - according to degree of mucosal erosion. • Score 7 - 9 - according to depth of gastric damage.
# Groups of 7 rats were used for each treatment and the test compound or vehicle were administered 30 minutes prior to giving the indomethacin. Dose of test compound was 50mg/kg orally and control groups receiving vehicle only were set up simultaneously. Mean values for each treatment were obtained using the above scoring system and the Mann Witney test applied for significance of difference between the values obtained with the treatments.
SMILES,active at (protection against bronchoconstriction induced by an histamine aerosol) (conscious guinea pigs) [mg/kg],inhibited gastric acid secretion at [1] [mg/kg],Test Mean Score ± S.E. of Mean (rat)
CCCCC(C)C(C)(O)CCN1C(=O)CN(C)C(=O)C1CCCCCCC(=O)OC (stereo not shown) [Compound 3],10,0.2,0.71 ± 0.42 (p <0.01)
COC(=O)CCCCCCC1C(=O)N[C@@H](C)C(=O)N1CCC(C)(O)C1CCCCC1 (stereo partly shown) [Compound 9],,0.25,
